Experiments:
[1] = AUC(0 to 12hrs) in Sprague-Dawley rat at 5 mg/kg, iv measured upto 12 hrs by LC-MS analysis; assay type: ADME, organism-based; conditions: in vivo
[2] = Acute toxicity in BALB/c mouse assessed as pathological changes in lung at 25 to 100 mg/kg, ip measured for 2 weeks by hematoxylin and eosin staining based assay; assay type: organism-based; conditions: in vivo, 336 h, dose 25-100 mg/kg
[3] = MRT (0 to 12hrs) in Sprague-Dawley rat at 15 mg/kg, po measured upto 12 hrs by LC-MS analysis; assay type: ADME, organism-based; conditions: in vivo
[4] = Bioavailability in Sprague-Dawley rat at 5 mg/kg, iv measured upto 12 hrs by LC-MS analysis; assay type: ADME, organism-based; conditions: in vivo
[5] = Toxicity in BALB/c nude mouse transplanted with human MV4-11 cells assessed as pathological damage in spleen at 2.5 to 10 mg/kg, ip measured for 17 days by hematoxylin and eosin staining based assay; assay type: organism-based; conditions: in vivo, 408 h, dose 2.5-10 mg/kg, time 17 day
[6] = Toxicity in BALB/c nude mouse transplanted with human MV4-11 cells assessed as pathological damage in liver at 2.5 to 10 mg/kg, ip measured for 17 days by hematoxylin and eosin staining based assay; assay type: organism-based; conditions: in vivo, 408 h, dose 2.5-10 mg/kg, time 17 day
[7] = Acute toxicity in BALB/c mouse assessed as TRIGL biochemical parameter at 25 to 100 mg/kg, ip measured for 2 weeks; assay type: organism-based; conditions: in vivo, 336 h, dose 25-100 mg/kg
[8] = Toxicity in BALB/c nude mouse transplanted with human MV4-11 cells assessed as change in body weight at 2.5 to 10 mg/kg, ip measured for 17 days; assay type: organism-based; conditions: in vivo, 408 h, dose 2.5-10 mg/kg, time 17 day
[9] = Acute toxicity in BALB/c mouse assessed as ALP2L biochemical parameter at 25 to 100 mg/kg, ip measured for 2 weeks; assay type: organism-based; conditions: in vivo, 336 h, dose 25-100 mg/kg
[10] = Cmax in Sprague-Dawley rat at 5 mg/kg, iv measured upto 12 hrs by LC-MS analysis; assay type: ADME, organism-based; conditions: in vivo
[11] = Acute toxicity in BALB/c mouse assessed as ALTL biochemical parameter at 25 to 100 mg/kg, ip measured for 2 weeks; assay type: organism-based; conditions: in vivo, 336 h, dose 25-100 mg/kg
[12] = Acute toxicity in BALB/c mouse assessed as UA2 biochemical parameter at 25 to 100 mg/kg, ip measured for 2 weeks; assay type: organism-based; conditions: in vivo, 336 h, dose 25-100 mg/kg
[13] = Acute toxicity in BALB/c mouse assessed as UREAL biochemical parameter at 25 to 100 mg/kg, ip measured for 2 weeks; assay type: organism-based; conditions: in vivo, 336 h, dose 25-100 mg/kg
[14] = Acute toxicity in BALB/c mouse assessed as CREJ2 biochemical parameter at 25 to 100 mg/kg, ip measured for 2 weeks; assay type: organism-based; conditions: in vivo, 336 h, dose 25-100 mg/kg
MV4-11 [15] = test: In vivo anti-leukemia activity against human MV4-11 cells transplanted in BALB/c nude mouse assessed as reduction in tumor weight at 10 mg/kg, ip twice weekly treatment started 7 th day of cell inoculum till 18 th day; assay type: functional; design: scale not given: the % may be the effect or the level left; conditions: time 11 day
[16] = Acute toxicity in BALB/c mouse assessed as ALB2 biochemical parameter at 25 to 100 mg/kg, ip measured for 2 weeks; assay type: organism-based; conditions: in vivo, 336 h, dose 25-100 mg/kg
[17] = Clearance in Sprague-Dawley rat at 5 mg/kg, iv measured upto 12 hrs by LC-MS analysis; assay type: ADME, organism-based; conditions: in vivo
[18] = Acute toxicity in BALB/c mouse assessed as vTP2 biochemical parameter at 25 to 100 mg/kg, ip measured for 2 weeks; assay type: organism-based; conditions: in vivo, 336 h, dose 25-100 mg/kg
[19] = Acute toxicity in BALB/c mouse assessed as ASTL biochemical parameter at 25 to 100 mg/kg, ip measured for 2 weeks; assay type: organism-based; conditions: in vivo, 336 h, dose 25-100 mg/kg
[20] = Half life in Sprague-Dawley rat at 5 mg/kg, iv measured upto 12 hrs by LC-MS analysis; assay type: ADME, organism-based; conditions: in vivo
MV4-11 [21] = test: In vivo anti-leukemia activity against human MV4-11 cells transplanted in BALB/c nude mouse assessed as reduction in tumor volume at 5 mg/kg, ip twice weekly treatment started 7 th day of cell inoculum till 18 th day; assay type: functional; design: scale not given: the % may be the effect or the level left; conditions: time 11 day
MV4-11 [22] = test: In vivo anti-leukemia activity against human MV4-11 cells transplanted in BALB/c nude mouse assessed as reduction in tumor volume at 2.5 mg/kg, ip twice weekly treatment started 7 th day of cell inoculum till 18 th day; assay type: functional; design: scale not given: the % may be the effect or the level left; conditions: time 11 day
[23] = MRT (0 to 12hrs) in Sprague-Dawley rat at 5 mg/kg, iv measured upto 12 hrs by LC-MS analysis; assay type: ADME, organism-based; conditions: in vivo
[24] = Cmax in Sprague-Dawley rat at 15 mg/kg, po measured upto 12 hrs by LC-MS analysis; assay type: ADME, organism-based; conditions: in vivo
[25] = Tmax in Sprague-Dawley rat at 15 mg/kg, po measured upto 12 hrs by LC-MS analysis; assay type: ADME, organism-based; conditions: in vivo
[26] = Acute toxicity in BALB/c mouse assessed as adverse effect at 25 to 100 mg/kg, ip measured for 2 weeks; assay type: organism-based; conditions: in vivo, 336 h, dose 25-100 mg/kg
[27] = Acute toxicity in BALB/c mouse assessed as pathological changes in spleen at 25 to 100 mg/kg, ip measured for 2 weeks by hematoxylin and eosin staining based assay; assay type: organism-based; conditions: in vivo, 336 h, dose 25-100 mg/kg
[28] = AUC(0 to 12hrs) in Sprague-Dawley rat at 15 mg/kg, po measured upto 12 hrs by LC-MS analysis; assay type: ADME, organism-based; conditions: in vivo
[29] = Acute toxicity in BALB/c mouse assessed as pathological changes in heart at 25 to 100 mg/kg, ip measured for 2 weeks by hematoxylin and eosin staining based assay; assay type: organism-based; conditions: in vivo, 336 h, dose 25-100 mg/kg
MV4-11 [30] = test: In vivo anti-leukemia activity against human MV4-11 cells transplanted in BALB/c nude mouse assessed as reduction in tumor weight at 2.5 mg/kg, ip twice weekly treatment started 7 th day of cell inoculum till 18 th day; assay type: functional; design: scale not given: the % may be the effect or the level left; conditions: time 11 day
[31] = Toxicity in BALB/c nude mouse transplanted with human MV4-11 cells assessed as pathological damage in heart at 2.5 to 10 mg/kg, ip measured for 17 days by hematoxylin and eosin staining based assay; assay type: organism-based; conditions: in vivo, 408 h, dose 2.5-10 mg/kg, time 17 day
MV4-11 [32] = test: In vivo anti-leukemia activity against human MV4-11 cells transplanted in BALB/c nude mouse assessed as reduction in tumor volume at 10 mg/kg, ip twice weekly treatment started 7 th day of cell inoculum till 18 th day; assay type: functional; design: scale not given: the % may be the effect or the level left; conditions: time 11 day
[33] = Toxicity in BALB/c nude mouse transplanted with human MV4-11 cells assessed as pathological damage in kidney at 2.5 to 10 mg/kg, ip measured for 17 days by hematoxylin and eosin staining based assay; assay type: organism-based; conditions: in vivo, 408 h, dose 2.5-10 mg/kg, time 17 day
[34] = Acute toxicity in BALB/c mouse assessed as pathological changes in liver at 25 to 100 mg/kg, ip measured for 2 weeks by hematoxylin and eosin staining based assay; assay type: organism-based; conditions: in vivo, 336 h, dose 25-100 mg/kg
[35] = Acute toxicity in BALB/c mouse assessed as pathological changes in kidney at 25 to 100 mg/kg, ip measured for 2 weeks by hematoxylin and eosin staining based assay; assay type: organism-based; conditions: in vivo, 336 h, dose 25-100 mg/kg
MV4-11 [36] = test: In vivo anti-leukemia activity against human MV4-11 cells transplanted in BALB/c nude mouse assessed as reduction in tumor weight at 5 mg/kg, ip twice weekly treatment started 7 th day of cell inoculum till 18 th day; assay type: functional; design: scale not given: the % may be the effect or the level left; conditions: time 11 day
[37] = Half life in Sprague-Dawley rat at 15 mg/kg, po measured upto 12 hrs by LC-MS analysis; assay type: ADME, organism-based; conditions: in vivo
[38] = Acute toxicity in BALB/c mouse assessed as LDHI2 biochemical parameter at 25 to 100 mg/kg, ip measured for 2 weeks; assay type: organism-based; conditions: in vivo, 336 h, dose 25-100 mg/kg
[39] = Toxicity in BALB/c nude mouse transplanted with human MV4-11 cells assessed as pathological damage in lung at 2.5 to 10 mg/kg, ip measured for 17 days by hematoxylin and eosin staining based assay; assay type: organism-based; conditions: in vivo, 408 h, dose 2.5-10 mg/kg, time 17 day

For `Cl.N#Cc1cccc(CN2CCc3[nH]c(NCc4ccc(F)cc4)nc(=O)c3C2)c1`, the AUC(0-t) at 12 h [1] was 791 ng·h/mL, the Activity [2] was “Non-Toxic” and the MRT last at 12 h [3] was 2.4 h. The bioavailability [4] was 32.7%, the Activity [5] was “Non-Toxic” and the Activity [6] was “Non-Toxic”. The Activity [7] was “Non-Toxic”, the Activity [8] was “Non-Toxic” and the Activity [9] was “Non-Toxic”. For the same molecule, the Cmax [10] was 869 ng/mL, the Activity [11] was “Non-Toxic” and the Activity [12] was “Non-Toxic”. The Activity [13] was “Non-Toxic”, the Activity [14] was “Non-Toxic” and the Activity (MV4-11 [15]) was 88.88%. For the same molecule, the Activity [16] was “Non-Toxic”, the clearance [17] was 58.3 mL/min/kg and the Activity [18] was “Non-Toxic”. For the same molecule, the Activity [19] was “Non-Toxic”, the half-life [20] was 4.9 h and the Activity (MV4-11 [21]) was 75.3%. The Activity (MV4-11 [22]) was 20.52%, the MRT last at 12 h [23] was 2.8 h and the Cmax [24] was 332 ng/mL. The Tmax [25] was 1 h, the Activity [26] was “Non-Toxic” and the Activity [27] was “Non-Toxic”. The AUC(0-t) at 12 h [28] was 780 ng·h/mL, the Activity [29] was “Non-Toxic” and the Activity (MV4-11 [30]) was 20.35%. For the same molecule, the Activity [31] was “Non-Toxic”, the Activity (MV4-11 [32]) was 88.29% and the Activity [33] was “Non-Toxic”. For the same molecule, the Activity [34] was “Non-Toxic”, the Activity [35] was “Non-Toxic” and the Activity (MV4-11 [36]) was 67%. The half-life [37] was 3.9 h, the Activity [38] was “Non-Toxic” and the Activity [39] was “Non-Toxic”.
